Measured values from patent US20100168054A1, “Functionalized Beta 1,6 Glucosamine Disaccharides and Process for Their Preparation” (OM PHARMA, priority 2006, published 2010).

Assays:
[1] = tested on: human peripheral blood mononuclear cells (PBMC); experiment: IL-6 secretion by human PBMC (ELISA); format: cell-based; settings: for IL6: 24 h; for IL-6 secretion (in words): 1, 5, 20 μg/ml
Experimental: Peripheral blood from healthy donors (Centre de transfusion, Hôpital Universitaire, Geneva) was centrifuged to get the buffy coat. The buffy coat was mixed with Hanks' balanced saline solution (HBSS, Sigma, Buchs, Switzerland), layered over Ficoll Paque Plus (Amersham Pharmacia) to 1.077 g/mL and centrifuged (2800 rpm, 20° C., 25 min). Cells harvested from the interphase were washed twice in HBSS at 800 rpm for 15 min at room temperature and the pelleted cells were resuspended in HBSS. The cell counts were performed using a Neubauer cell. All cell cultures were performed in RPMI-1640 medium supplemented with penicillin (100 U/mL), streptomycin (100 μg/mL), L-glutamine (2 mmol/L) and 10% fetal calf serum (FCS), all obtained from Sigma. For in vitro stimulation, the cells were cultured at a concentration of 1×10^6 viable cells/well.
PBMC were incubated at 37° C. and under 5% CO2 atmosphere with the controls (see below) and with the products of the invention at 1, 5, and 20 μg/mL for IL-6, and at 0.2, 2, and 20 μg/mL for TNF-α secretion. Medium: RPMI alone.
The surpernatants of the cultures were harvested after 24 h and the concentration of IL-6 and TNF-α were measured by an enzyme-linked immunosorbent assay (ELISA) (Human IL-6 and TNF-α ELISA Set, BD OptEIA, San Diego, USA), according to the manufacturer instructions. The detection limits were 10 and 8 pg/mL respectively.
PBMC are incubated at 37° C. and under 5% CO2 atmosphere with the products of the invention.
The supernatants of the cultures are harvested after 24 h and the concentration of IL-6 was measured by an enzyme-linked immunosorbent assay (ELISA) (Human IL-6 ELISA Set, BD OptEIA, San Diego, USA), according to the manufacturer instructions. The detection limit was 10 pg/mL.

[2] = biological target: T1, TLR4 (Homo sapiens, UniProt O00206+Q9Y6Y9); experiment: HEK-MD2-TLR4-CD14 IL-8 secretion; format: cell-based; settings: 24 h
T1 construct: expressed in transfected cells; host or cells: HEK293
Description: (§1) The HEK293 cell line was chosen for its null or low basal expression of the TLR genes. These cells enable efficient monitoring of TLR activity using ELISA analysis such as IL-8 titration or reporter-based systems that monitor TLR-induced NF-κB activation. HEK-TLR2 cells (Invivogen, Toulouse, France) are engineered HEK293 cells stably transfected with multiple genes from the TLR2 pathway that include TLR2 and genes participating in the recognition or involved in the signaling cascade. These cells secrete IL-8 after TLR2 stimulation. The experiments were performed according to manufacturers' instructions. Briefly, 2×10^4 cells/well (200 ul RPMI) are incubated at 37° C. during 3 days (5% CO2). The medium is removed, and 90 ul RPMi+5% FCS is added to the wells Then the agonists and controls are added (10 ul/well). The cells return to the incubator for 24 hours. The supernatants are collected and the IL-8 ELISA is performed according to manufacturer's instructions
HEK-MD2-TLR4-CD14 are highly sensitive to LPS. They were obtained by stable transfection of HEK293 cells with the TLR4, MD2 and CD14 genes and an NF-κB-inducible reporter system. They secrete IL-8. We used the same experimental procedure as for the other HEK cell lines described above.

[3] = tested on: THP1-Blue cells (express naturally both TLR2 and TLR4); experiment: THP1-Blue NF-κB/AP-1-inducible SEAP reporter; format: cell-based, human; settings: for Optical density read at 625 nm, mean of duplicates: 48 h
Experimental: A first series of experiment was performed on THP-1 cells, which express naturally both TLR2 and TLR4. THP-1 cells are human peripheral blood monocytic cells. Monocytes play a key role in innate immunity and express most TLRs at various levels. As for the primary cells, THP-1 cells activate NF-κB and other transcription factors in response to TLR ligands
To facilitate analysis of TLR response in monocytes, InvivoGen (Toulouse, France) provides THP-1 clones stably transfected with an NF-κB-inducible reporter system, called THP1-Blue™. THP-1 Blue cells were stably transfected with a reporter plasmid expressing a secreted embryonic alkaline phosphatase (SEAP) gene under the control of a promoter inducible by several transcription factors such as NF-κB and AP-1. Upon TLR stimulation, THP1-Blue™ cells activate transcription factors and subsequently the secretion of SEAP which is easily detectable when using QUANTI-Blue\u2122a medium that turns purple/blue in the presence of SEAP.
The cells were stimulated with the controls and compounds of the invention according to manufacturer's instructions. Results: Increased OD at 625 Nm after 48 Hours: The results for the controls (negative=LPS K12CD25 ultrapure, a TLR4 agonist; and PAM3CSK4=positive, a TLR2 agonist) are provided in the table below. The results (expressed as OD of arbitrary units) show the mean values (from duplicate measures) of Optical density read at 625 nm, 48 h after stimulation at 37° C. with the controls (up to 1000 ng/ml): […]

[4] = biological target: T2, TLR2 and CD14 (Homo sapiens, UniProt O60603); experiment: HEK-TLR2-CD14 IL-8 secretion; format: cell-based; settings: for IL-8 secretion, mean: 24 h
T2 construct: expressed in transfected cells; host or cells: HEK (HEK-TLR2-CD14 cell line)
Description: as §1, with “manufacturer's instructions These preliminary results were confirmed in another cell line expressing concomitantly TLR2 and CD14. The procedure used is similar to the one described just above.” for “manufacturer's instructions”

T2 sequence (O60603 21-784): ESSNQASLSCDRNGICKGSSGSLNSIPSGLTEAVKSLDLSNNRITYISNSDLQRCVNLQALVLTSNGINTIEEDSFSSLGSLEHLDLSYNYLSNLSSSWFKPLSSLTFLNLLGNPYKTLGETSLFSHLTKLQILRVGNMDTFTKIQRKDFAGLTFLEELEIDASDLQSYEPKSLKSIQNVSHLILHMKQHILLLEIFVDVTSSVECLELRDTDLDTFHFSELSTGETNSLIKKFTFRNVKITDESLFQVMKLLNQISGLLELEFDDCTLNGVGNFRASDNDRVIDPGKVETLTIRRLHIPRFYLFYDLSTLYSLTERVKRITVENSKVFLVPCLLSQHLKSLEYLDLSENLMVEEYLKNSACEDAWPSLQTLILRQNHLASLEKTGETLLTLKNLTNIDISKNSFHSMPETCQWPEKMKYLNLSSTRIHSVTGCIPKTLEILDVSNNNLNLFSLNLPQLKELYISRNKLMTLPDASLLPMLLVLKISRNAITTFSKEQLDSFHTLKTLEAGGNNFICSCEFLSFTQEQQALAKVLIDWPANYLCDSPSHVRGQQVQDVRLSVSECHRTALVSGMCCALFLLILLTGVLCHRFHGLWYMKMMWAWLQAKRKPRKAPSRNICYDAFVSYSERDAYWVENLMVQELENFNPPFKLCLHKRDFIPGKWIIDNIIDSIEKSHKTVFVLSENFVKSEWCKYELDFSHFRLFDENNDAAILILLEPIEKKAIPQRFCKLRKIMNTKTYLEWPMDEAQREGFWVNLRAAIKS
T1 sequence (O00206 24-839): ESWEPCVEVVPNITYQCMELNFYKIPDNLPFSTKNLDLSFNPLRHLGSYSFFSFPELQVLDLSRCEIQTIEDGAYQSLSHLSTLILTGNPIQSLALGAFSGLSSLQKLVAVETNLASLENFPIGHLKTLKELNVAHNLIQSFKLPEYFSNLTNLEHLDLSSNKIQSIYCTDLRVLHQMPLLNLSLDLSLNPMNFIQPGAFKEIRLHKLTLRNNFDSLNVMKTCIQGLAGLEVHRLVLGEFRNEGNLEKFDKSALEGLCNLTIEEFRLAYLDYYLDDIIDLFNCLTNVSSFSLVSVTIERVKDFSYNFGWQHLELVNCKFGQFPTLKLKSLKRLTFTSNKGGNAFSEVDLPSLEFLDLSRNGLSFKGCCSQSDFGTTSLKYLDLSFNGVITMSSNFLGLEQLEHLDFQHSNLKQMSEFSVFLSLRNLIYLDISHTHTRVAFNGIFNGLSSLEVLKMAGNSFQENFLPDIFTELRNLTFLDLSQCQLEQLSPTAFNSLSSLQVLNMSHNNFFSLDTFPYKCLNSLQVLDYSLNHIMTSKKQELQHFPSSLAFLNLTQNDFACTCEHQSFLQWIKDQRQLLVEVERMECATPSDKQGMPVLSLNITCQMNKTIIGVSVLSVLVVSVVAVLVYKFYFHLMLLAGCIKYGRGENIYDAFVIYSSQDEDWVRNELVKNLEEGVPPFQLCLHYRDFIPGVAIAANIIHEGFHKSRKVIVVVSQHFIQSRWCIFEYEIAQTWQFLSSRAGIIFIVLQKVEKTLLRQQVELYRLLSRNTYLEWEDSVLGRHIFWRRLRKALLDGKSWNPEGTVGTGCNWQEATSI
T1 sequence (Q9Y6Y9 17-160 limits assumed): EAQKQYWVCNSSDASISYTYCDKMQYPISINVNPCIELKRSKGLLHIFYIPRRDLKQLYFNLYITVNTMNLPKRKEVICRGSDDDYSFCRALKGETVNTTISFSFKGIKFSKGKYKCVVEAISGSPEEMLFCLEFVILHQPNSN

With CCCCCCCCCCCC(=O)O[C@H](CCCCCCCCCCC)CC(=O)N[C@H]1[C@H](OC[C@H]2O[C@H](OCCC)[C@H](NC(=O)C[C@H](O)CCCCCCCCCCC)[C@@H](O)[C@@H]2O)O[C@H](CO)[C@@H](OP(=O)(O)O)[C@@H]1O [compound 17, Propyl-2-Deoxy-6-O-[2-deoxy-4-O-(dihydroxyphosphoryl)-2-[(R)-3-dodecanoyloxytetradecanoylamino]-β-D-glucopyranosyl]-2-[(R)-3-hydroxytetradecanoylamino]-α-D-glucopyranoside] the IL6 ([1]; 1 μg/ml) was 171.6 pg/mL, the IL6 ([1]; 5 μg/ml) was 447.6 pg/mL and the IL6 ([1]; 20 μg/ml) was 752.4 pg/mL. The “IL-6 secretion (in words)” value [1] was “able to induce IL-6 secretion”, the “IL-8 secretion, mean” value ([2]; 14 ng/ml) was 1.88 pg/mL and the “IL-8 secretion, mean” value ([2]; 41 ng/ml) was 1.97 pg/mL. The “IL-8 secretion, mean” value ([2]; 124 ng/ml) was 1.93 pg/mL, the “IL-8 secretion, mean” value ([2]; 370 ng/ml) was 1.85 pg/mL and the “IL-8 secretion, mean” value ([2]; 1111 ng/ml) was 1.94 pg/mL. The “IL-8 secretion, mean” value ([2]; 3333 ng/ml) was 1.89 pg/mL, the “IL-8 secretion, mean” value ([2]; 10000 ng/ml) was 1.70 pg/mL and the “activation of THP-1 cells (in words)” value [3] was “good activators of THP-1 cells”. The “Optical density read at 625 nm, mean of duplicates” value (from here on “Optical density read at 625 nm”) ([3]; 14 ng/ml) was 0.13 OD, the “Optical density read at 625 nm” value ([3]; 41 ng/ml) was 0.15 OD and the “Optical density read at 625 nm” value ([3]; 124 ng/ml) was 0.19 OD. For the same molecule, the “Optical density read at 625 nm” value ([3]; 370 ng/ml) was 0.36 OD, the “Optical density read at 625 nm” value ([3]; 1111 ng/ml) was 0.74 OD and the “Optical density read at 625 nm” value ([3]; 3333 ng/ml) was 1.02 OD. The “Optical density read at 625 nm” value ([3]; 10000 ng/ml) was 1.15 OD, the “IL-8 secretion, mean” value ([4]; 14 ng/ml) was 0.13 pg/mL and the “IL-8 secretion, mean” value ([4]; 41 ng/ml) was 0.14 pg/mL. The “IL-8 secretion, mean” value ([4]; 124 ng/ml) was 0.20 pg/mL, the “IL-8 secretion, mean” value ([4]; 370 ng/ml) was 0.22 pg/mL and the “IL-8 secretion, mean” value ([4]; 1111 ng/ml) was 0.40 pg/mL. The “IL-8 secretion, mean” value ([4]; 3333 ng/ml) was 1.06 pg/mL, the “IL-8 secretion, mean” value ([4]; 10000 ng/ml) was 3.59 pg/mL and the “activation of IL-8 secretion via TLR2 (in words)” value ([4]; HEK-TLR2-CD14) was “able to activate IL-8 secretion via TLR2”.
CCCCCCCCCCCC(=O)O[C@H](CCCCCCCCCCC)CC(=O)N[C@H]1[C@H](OC[C@H]2O[C@H](OCC(O)CO)[C@H](NC(=O)C[C@H](O)CCCCCCCCCCC)[C@@H](O)[C@@H]2O)O[C@H](CO)[C@@H](OP(=O)(O)O)[C@@H]1O (stereo partly drawn) [compound 19, 2,3-Dihydroxypropyl-2-Deoxy-6-O-[2-deoxy-4-O-(dihydroxyphosphoryl)-2-[(R)-3-dodecanoyloxytetradecanoylamino]-β-D-glucopyranosyl]-2-[(R)-3-hydroxytetradecanoylamino]-α-D-glucopyranoside] showed an IL6 ([1]; 1 μg/ml) of 44.5 pg/mL, an IL6 ([1]; 5 μg/ml) of 95.9 pg/mL and an IL6 ([1]; 20 μg/ml) of 199.1 pg/mL. For the same molecule, the “IL-6 secretion (in words)” value [1] was “able to induce IL-6 secretion”, the “IL-8 secretion, mean” value ([2]; 14 ng/ml) was 1.69 pg/mL and the “IL-8 secretion, mean” value ([2]; 41 ng/ml) was 1.64 pg/mL. The “IL-8 secretion, mean” value ([2]; 124 ng/ml) was 1.56 pg/mL, the “IL-8 secretion, mean” value ([2]; 370 ng/ml) was 1.67 pg/mL and the “IL-8 secretion, mean” value ([2]; 1111 ng/ml) was 1.73 pg/mL. For the same molecule, the “IL-8 secretion, mean” value ([2]; 3333 ng/ml) was 1.88 pg/mL, the “IL-8 secretion, mean” value ([2]; 10000 ng/ml) was 1.96 pg/mL and the “activation of THP-1 cells (in words)” value [3] was “good activators of THP-1 cells”. For the same molecule, the “Optical density read at 625 nm” value ([3]; 14 ng/ml) was 0.15 OD, the “Optical density read at 625 nm” value ([3]; 41 ng/ml) was 0.13 OD and the “Optical density read at 625 nm” value ([3]; 124 ng/ml) was 0.17 OD. The “Optical density read at 625 nm” value ([3]; 370 ng/ml) was 0.24 OD, the “Optical density read at 625 nm” value ([3]; 1111 ng/ml) was 0.37 OD and the “Optical density read at 625 nm” value ([3]; 3333 ng/ml) was 0.58 OD. For the same molecule, the “Optical density read at 625 nm” value ([3]; 10000 ng/ml) was 0.77 OD, the “IL-8 secretion, mean” value ([4]; 14 ng/ml) was 0.05 pg/mL and the “IL-8 secretion, mean” value ([4]; 41 ng/ml) was 0.03 pg/mL. The “IL-8 secretion, mean” value ([4]; 124 ng/ml) was 0.11 pg/mL, the “IL-8 secretion, mean” value ([4]; 370 ng/ml) was 0.10 pg/mL and the “IL-8 secretion, mean” value ([4]; 1111 ng/ml) was 0.17 pg/mL. The “IL-8 secretion, mean” value ([4]; 3333 ng/ml) was 0.26 pg/mL and the “IL-8 secretion, mean” value ([4]; 10000 ng/ml) was 0.65 pg/mL.
